Experiments:
[1] = test system: NCI-H460 lung cancer cells; assay: Cytotoxicity and photocytotoxicity, MTT assay, NCI-H460 in dark or under visible light; assay type: cell-based, human; settings: for PI = IC50(dark)/IC50(light): NCI-H460, phototoxicity index
Description: FIG. 12A-12G. Plots of cell viability of NCI-H460 lung cancer cells upon 72 h treatment with the iridium(III) porphyrin complexes and cis-platin in dark or under light irradiation (2.8 mW cm^−2 for 1 h).
NCI-H460 lung cancer cells incubated with the complexes were exposed to a low dose of visible light irradiation (2.8 mW cm^−2) for 1 h. […] The cytotoxicity of [Ir^III(oep)Cl(CO)] was also evaluated for comparison.

[2] = Singlet oxygen generation quantum yield from 1O2 emission; assay type: physicochemical; settings: oxygen-saturated CHCl3, referenced to H2tpp
MCF-7 = assay: In vitro cytotoxicity, MTT assay, MCF-7; assay type: cell-based, human; settings: 72 h incubation
[3] = Lipophilicity, n-octanol / saline partition; assay type: physicochemical; settings: n-octanol / saline solution (0.9% w/v), by amount of iridium
HepG2 = assay: In vitro cytotoxicity, MTT assay, HepG2; assay type: cell-based, human; settings: 72 h incubation
[4] = test system: panel of human cancer cell lines; assay: Cytotoxicity towards a panel of human cancer cell lines; settings: summary of Table 2
[5] = test system: NCI-H460 lung cancer xenografts; settings: 3.0 mg/kg intratumoral
Description: FIGS. 9A-9D. […] (A) Tumor volume. (B) Body weight of mice. (C) Tumor weight after the experiment. […] (D) Photo of tumors of each group after treatment for 15 days. Data are expressed as the mean±standard error; **p<0.01.
(§1) The other two groups of mice received the same treatment without irradiation as a control.

NCI-H460 cells [6] = assay: Apoptosis by annexin-V-FITC/propidium iodide flow cytometry; assay type: cell-based, human; settings: 0.1 μM
Description: (§2) FIGS. 8A-8C. […] (A) Apoptosis/necrosis in NCI-H460 cells as examined by flow cytometry of annexin-V-FITC/propidium iodide-stained cells. (B) Cell cycle progression in NCI-H460 cells as examined by flow cytometry. (C) Inhibition of angiogenesis of MS-1 endothelial cells.
as §1

[7] = test system: NCI-H460 lung cancer cells; assay: Cellular ROS generation by DCF fluorescence (H2DCF-DA probe); assay type: cell-based, human; settings: 1 μM, 2 h, visible light irradiation
Description: (A) Generation of ROS examined by DCF fluorescence measurement in NCI-H460 cells treated with or without iridium(III) porphyrin complexes (1 μM) for 2 h with or without irradiation by visible light.
To examine the relationship between photocytotoxicity and the photosensitizing properties of the complexes, we measured the cellular reactive oxygen species (ROS) generation using the ROS probe H2DCF-DA after treatment of cancer cells with the iridium(III) porphyrin complexes.

NCI-H460 cells [8] = assay: Subcellular localization by confocal microscopy imaging; settings: 1 μM, 2 h, NCI-H460, ER-Tracker green
MS-1 endothelial cells = assay: Inhibition of endothelial cell tube formation (angiogenesis); assay type: cell-based; settings: 0.1 μM
Description: as §2, §1

[9] = test system: peptide ([…]) from thioredoxin (Trx); assay: Photoinduced oxidation of Trx model peptide by ESI-MS/MS; assay type: biochemical; settings: peptide 20 μM, complex 10 μM, light irradiation 1 h
Description: A peptide ([sequence]) from thioredoxin (Trx) was employed as a model to investigate the possible oxidative modification sites by electrospray ionization tandem mass spectrometry (ESI-MS/MS).

NCI-H460 cells [10] = assay: Cell cycle progression by flow cytometry; assay type: cell-based, human; settings: 0.1 μM
Description: as §2, §1

[11] = test system: NCI-H460 human non-small cell lung cancer xenografts; assay: In vivo antitumor activity, intravenous injection, NCI-H460 xenograft; settings: 3 mg/kg intravenous thrice weekly, 16-day treatment
Description: (A) Tumor volume and (B) body weight of mice. Data are expressed as the mean±standard error; *p<0.05.
Nude mice bearing NCI-H460 human non-small cell lung cancer xenografts were administered 102 (3 mg/kg) via intravenous injection thrice weekly.

[12] = in CHCl3, reference standard; cited from earlier work

Molecule: [Ir^III(oep)(I^iPr)2](PF6) [Complex 103]
- IC50 upon light irradiation, in words ([1]; NCI-H460, visible light 2.8 mW cm^−2, 1 h): nanomolar

Molecule: [Ir^III(ttp)(IMe)2](ORf) [Complex 101]
- Quantum yield of singlet oxygen generation (Φso) [2]: 0.64

Molecule: CCC1=C(CC)C2=NC1=Cc1c(CC)c(CC)c3[n]1[Ir+][n]1c(c(CC)c(CC)c1=CC1=NC(=C3)C(CC)=C1CC)=C2.F[B-](F)(F)F.[C-]#[N+]c1ccc(OC)cc1.[C-]#[N+]c1ccc(OC)cc1 [[Ir^III(ope)(CNPhOMe)2](BF4)]
- IC50 (MCF-7): > 100 µM
- Log P [3]: 2.81
- IC50 (HepG2): > 100 µM
- Cytotoxicity / IC50 in words, panel of human cancer cell lines [4]: reduced cytotoxicity
- PI = IC50(dark)/IC50(light) [1]: 24.2

Molecule: [Ir^III(oep)(IMe)2](OTf) [Complex 102]
- Quantum yield of singlet oxygen generation (Φso) [2]: 0.88
- Tumor weight, photoirradiation group vs dark control group ([5]; after 15 days): much lower
- Changes in body weight ([5]; with or without irradiation, 15 days): negligible changes in body weight
- Proportion of cells undergoing apoptotic cell death, without irradiation (NCI-H460 cells [6]; dark): 5.9%
- Proportion of cells undergoing apoptotic cell death, light irradiation (NCI-H460 cells [6]; visible light irradiation): 81.7%
- Elevation in ROS levels [7]: 10 fold
- Pearson's correlation coefficient (R) with ER-Tracker (NCI-H460 cells [8]): 0.903
- MS-1 cell tube formation, dark (MS-1 endothelial cells; dark): moderate inhibition
- MS-1 cell tube formation, light irradiation (MS-1 endothelial cells; light irradiation): completely abrogated
- Oxidative modification of Trx peptide [9]: undergo oxidative modifications
- G0/G1-population (NCI-H460 cells [10]; dark (increase from 59.6%)): 66.3%
- sub-G1 population, visible light irradiation (NCI-H460 cells [10]; visible light irradiation): 96.9%
- sub-G1 population, before irradiation (NCI-H460 cells [10]; without light): 2.2%
- Toxicity incl. body weight loss and death [11]: without apparent toxicity
- Tumor size reduction [11]: 41%

Molecule: [Ir^III(oep)Cl(CO)]
- Log P [3]: 2.38
- PI = IC50(dark)/IC50(light) [1]: >2.5
- IC50 ([1]; dark, MTT assay, 72 h): > 50 µM

Molecule: N.N.[Cl][Pt][Cl] [Cisplatin]
- PI = IC50(dark)/IC50(light) [1]: 0.72
- PI = IC50(dark)/IC50(light) ([1]; listed as cisplatin): < 1

Molecule: C1=Cc2nc1c(-c1ccccc1)c1ccc([nH]1)c(-c1ccccc1)c1nc(c(-c3ccccc3)c3ccc([nH]3)c2-c2ccccc2)C=C1 [Complex H2tpp, H2tpp]
- Quantum yield of singlet oxygen generation (Φso), reference [12]: 0.55

Reference: patent publication US11286271B2, “Iridium (III) complexes containing N-heterocyclic carbene ligand, synthesis, and their use thereof in cancer treatment” (The University of Hong Kong, priority 2018, dated 2022)
